Structures are written as SMILES. Where a SMILES comes first, the peptide text is derived from it. [ ]: non-standard residue; d: D form. The star is where a group is joined. Propanoyl(3-(4-F-phenyl)) = O=C(CCc1ccc(F)cc1)*; NH(2-pyrrolidin-1-ylethyl) = C1CCN(CCN*)C1; dBip = N[C@H](Cc1ccc(-c2ccccc2)cc1)C(=O)O; 1Nal = N[C@@H](Cc1cccc2ccccc12)C(=O)O; d1Nal = N[C@H](Cc1cccc2ccccc12)C(=O)O; NMeY = CN[C@@H](Cc1ccc(O)cc1)C(=O)O; Tic = O=C(O)[C@@H]1Cc2ccccc2CN1; NMeL = CN[C@@H](CC(C)C)C(=O)O; Nicotinoyl = O=C(c1cccnc1)*; Sar = CNCC(=O)O

Results on 14 compounds are retold here after patent publication US6297354A, “Pentapeptide LHRH antagonists” (Abbott Laboratories, priority 1999, dated 2001).

The target of this assay is T1, LH release from rat pituitary cells (Rattus norvegicus, UniProt P30969).
T1 sequence (P30969 1-327): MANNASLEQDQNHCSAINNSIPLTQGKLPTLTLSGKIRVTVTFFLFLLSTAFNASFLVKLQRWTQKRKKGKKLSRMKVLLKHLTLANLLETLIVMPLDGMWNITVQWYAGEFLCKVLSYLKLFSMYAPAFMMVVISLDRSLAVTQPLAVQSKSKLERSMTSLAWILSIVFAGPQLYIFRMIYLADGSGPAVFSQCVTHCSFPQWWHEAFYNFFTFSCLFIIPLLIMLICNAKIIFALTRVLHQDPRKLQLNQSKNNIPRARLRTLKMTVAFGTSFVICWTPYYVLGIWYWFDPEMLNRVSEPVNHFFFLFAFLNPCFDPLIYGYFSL
The assay is described as follows: in vitro inhibition of LH release from rat pituitary cells (pA2, vs agonist leuprolide). To be noted: negative logarithm of antagonist concentration required to shift the response curve produced by agonist leuprolide to two-fold higher concentration. Format: cell-based. The procedure: Representative compounds of the present invention were evaluated in vitro for inhibition of LH release from rat pituitary cells (pA2). Methods for the assay procedures are described by F. Haviv, et al. J. Med. Chem., 32:2340-2344 (1989). Values of pA2 are the negative logarithms of the concentration of the particular antagonist test compound required to shift the response curve produced by the agonist leuprolide to two-fold higher concentration. Typically values of 6.0 or greater are indicative of good LHRH antagonist potency, with values of 7.0 or greater being preferred. Leuprolide LHRH agonist, disclosed and claimed in U.S. Pat. No. 4,005,063, has the structure 5-oxo-Pro1^1 -His^2 […] -Ser^4 -Tyr^5 -D-Leu^6 -Leu^7 -Arg^8 -Pro^9 -NHEt.
As for `CC(C)C[C@H](NC(=O)[C@@H](CCCCNC(=O)c1cccnc1)NC(=O)[C@@H]1Cc2ccccc2CN1C(=O)[C@H](CO)NC(=O)[C@@H](Cc1cccc2ccccc12)NC(=O)CCc1ccc(F)cc1)C(=O)NCCN1CCCC1` [Example 17, 4-F-Phenylpropionyl-D1Nal-Ser-Tic-DLys(Nic)-Leu-NH--(CH2)2 -( 1-pyrrolidine)] ({Propanoyl(3-(4-F-phenyl))}-[d1Nal]S[Tic][dK](Nicotinoyl)L-{NH(2-pyrrolidin-1-ylethyl)}), the “LHRH Antagonist Activity (pA2)” value came to 9.32. Under `CC(C)C[C@@H](C(=O)NCCN1CCCC1)N(C)C(=O)CNC(=O)[C@H](Cc1ccc(O)cc1)N(C)C(=O)[C@H](CO)NC(=O)[C@@H](Cc1cccc2ccccc12)NC(=O)CCc1ccc(F)cc1` [Example 8, 4-F-Phenylpropionyl-D1Nal-Ser-NMeTyr-Gly-NMeLeu-NH--(CH2)2 -(1Pyrrolidine)] ({Propanoyl(3-(4-F-phenyl))}-[d1Nal]S[NMeY]G[NMeL]-{NH(2-pyrrolidin-1-ylethyl)}) stands 9.00.

With `CC(C)C[C@@H](C(=O)NCCN1CCCC1)N(C)C(=O)CNC(=O)[C@H](Cc1ccc(O)cc1)N(C)C(=O)CNC(=O)[C@@H](Cc1cccc2ccccc12)NC(=O)CCc1ccc(F)cc1` [Example 9, 4-F-Phenylpropionyl-D1Nal-Gly-NMeTyr-Gly-NMeLeu-NH--(CH2)2 -(1-pyrrolidine)] ({Propanoyl(3-(4-F-phenyl))}-[d1Nal]G[NMeY]G[NMeL]-{NH(2-pyrrolidin-1-ylethyl)}), the “LHRH Antagonist Activity (pA2)” value is on record as 7.72. Under `CC(C)C[C@H](NC(=O)[C@@H](CCCCNC(=O)c1cccnc1)NC(=O)CN(C)C(=O)[C@H](CO)NC(=O)[C@@H](Cc1cccc2ccccc12)NC(=O)CCc1ccc(F)cc1)C(=O)NCCN1CCCC1` [Example 3, 4-F-Phenylpropionyl-D1Nal-Ser-Sar-DLys(Nic)-Leu-NH--(CH2)2 (1-pyrrolidine)] ({Propanoyl(3-(4-F-phenyl))}-[d1Nal]S[Sar][dK](Nicotinoyl)L-{NH(2-pyrrolidin-1-ylethyl)}) stands 7.66. For `CC(C)C[C@H](NC(=O)[C@@H](CCCCNC(=O)c1cccnc1)NC(=O)[C@H](Cc1ccc(O)cc1)N(C)C(=O)CNC(=O)[C@@H](Cc1cccc2ccccc12)NC(=O)CCc1ccc(F)cc1)C(=O)NCCN1CCCC1` [Example 6, 4-F-Phenylpropionyl-D1Nal-Gly-NMeTyr-DLys(Nic)-Leu-NH--(CH2)2 -(1-pyrrolidine)] ({Propanoyl(3-(4-F-phenyl))}-[d1Nal]G[NMeY][dK](Nicotinoyl)L-{NH(2-pyrrolidin-1-ylethyl)}) the value was 8.90. Under `CC(C)C[C@H](NC(=O)[C@@H](CCCCNC(=O)c1cccnc1)NC(=O)[C@H](Cc1ccc(O)cc1)N(C)C(=O)[C@H](CO)NC(=O)[C@@H](Cc1cccc2ccccc12)NC(=O)CCc1ccc(F)cc1)C(=O)NCCN1CCCC1` [Example 1, 4-F-Phenylpropionyl-D1Nal-Ser-NMeTyr-DLys(Nic)-Leu-NH--(CH2)2 -(1-pyrrolidine)] ({Propanoyl(3-(4-F-phenyl))}-[d1Nal]S[NMeY][dK](Nicotinoyl)L-{NH(2-pyrrolidin-1-ylethyl)}) stands 9.91; under `CC(C)C[C@H](NC(=O)[C@@H](Cc1ccccc1)NC(=O)[C@H](Cc1ccc(O)cc1)N(C)C(=O)[C@H](CO)NC(=O)[C@@H](Cc1c[nH]c2ccccc12)NC(=O)CCc1ccc(F)cc1)C(=O)NCCN1CCCC1` [Example 15, 4-F-Phenylpropionyl-DTrp-Ser-NMeTyr-DPhe-Leu-NH--(CH2)2 -(1-pyrrolidine)] ({Propanoyl(3-(4-F-phenyl))}-[dW]S[NMeY][dF]L-{NH(2-pyrrolidin-1-ylethyl)}), 8.59; under `CC(C)C[C@H](NC(=O)[C@@H](CCCCNC(=O)c1cccnc1)NC(=O)[C@H](Cc1ccc(O)cc1)N1CC[C@H](NC(=O)[C@@H](Cc2cccc3ccccc23)NC(=O)CCc2ccc(F)cc2)C1=O)C(=O)NCCN1CCCC1` [Example 19, 4-F-Phenylpropionyl-D1Nal-6,7[2-(S-3-amino-2-oxo-pyrrolidin-1-yl)-S-2-(para-hydroxyl)phenylacetyl]-DLys(Nic)-Leu-NH--(CH2)2-(1-pyrrolidine)], 7.89.

For the compound `CC(C)C[C@H](NC(=O)CNC(=O)[C@H](Cc1ccc(O)cc1)N(C)C(=O)[C@H](CO)NC(=O)[C@@H](Cc1cccc2ccccc12)NC(=O)CCc1ccc(F)cc1)C(=O)NCCN1CCCC1` [Example 2, 4-F-Phenylpropionyl-D1Nal-Ser-NMeTyr-Gly-Leu-NH--(CH2)2 -(1pyrrolidine)] ({Propanoyl(3-(4-F-phenyl))}-[d1Nal]S[NMeY]GL-{NH(2-pyrrolidin-1-ylethyl)}), the “LHRH Antagonist Activity (pA2)” value came out at 9.14. Take `CC(C)C[C@H](NC(=O)[C@@H](CCCCNC(=O)c1cccnc1)NC(=O)[C@H](Cc1ccc(O)cc1)NC(=O)[C@H](CO)NC(=O)[C@@H](Cc1cccc2ccccc12)NC(=O)CCc1ccc(F)cc1)C(=O)NCCN1CCCC1` [Example 7, 4-F-Phenylpropiopyl-D1Nal-Ser-Tyr-DLys(Nic)-Leu-NH--(CH2)2 -(1-pyrrolidine)] ({Propanoyl(3-(4-F-phenyl))}-[d1Nal]SY[dK](Nicotinoyl)L-{NH(2-pyrrolidin-1-ylethyl)}): the “LHRH Antagonist Activity (pA2)” value turned out to be 9.73. Under `CC(C)C[C@H](NC(=O)[C@@H](CCCCNC(=O)c1cccnc1)NC(=O)[C@H](Cc1ccc(O)cc1)N(C)C(=O)[C@@H]1CCCN1C(=O)[C@@H](Cc1cccc2ccccc12)NC(=O)CCc1ccc(F)cc1)C(=O)NCCN1CCCC1` [Example 16, 4-F-Phenylpropionyl-D1Nal-Pro-NMeTyr-DLys(Nic)-Leu-NH--(CH2)2 -(1-Pyrrolidine)] ({Propanoyl(3-(4-F-phenyl))}-[d1Nal]P[NMeY][dK](Nicotinoyl)L-{NH(2-pyrrolidin-1-ylethyl)}) stands 8.71. Under `CC(C)C[C@H](NC(=O)[C@@H](CCCCNC(=O)c1cccnc1)NC(=O)[C@H](Cc1ccc(O)cc1)N(C)C(=O)[C@H](CO)NC(=O)[C@H](Cc1cccc2ccccc12)NC(=O)CCc1ccc(F)cc1)C(=O)NCCN1CCCC1` [Example 14, 4-F-Phenylpropionyl-1Nal-Ser-NMeTyr-DLys(Nic)-Leu-NH--(CH2)2 -(1-pyrrolidine)] ({Propanoyl(3-(4-F-phenyl))}-[1Nal]S[NMeY][dK](Nicotinoyl)L-{NH(2-pyrrolidin-1-ylethyl)}) stands 8.68; under `CC(C)C[C@H](NC(=O)[C@@H](CCCCNC(=O)c1cccnc1)NC(=O)[C@H](Cc1ccc(O)cc1)N(C)C(=O)[C@H](CO)NC(=O)[C@@H](Cc1c[nH]c2ccccc12)NC(=O)CCc1ccc(F)cc1)C(=O)NCCN1CCCC1` [Example 10, 4-F-Phenylpropionyl-DTrp-Ser-NMeTyr-DLys(Nic)-Leu-NH--(CH2)2 -(1-pyrrolidine)] ({Propanoyl(3-(4-F-phenyl))}-[dW]S[NMeY][dK](Nicotinoyl)L-{NH(2-pyrrolidin-1-ylethyl)}), 8.69.

Turning to `CC(C)C[C@H](NC(=O)[C@@H](CCCCNC(=O)c1cccnc1)NC(=O)[C@H](Cc1ccc(O)cc1)N(C)C(=O)[C@H](CO)NC(=O)[C@@H](Cc1ccc(-c2ccccc2)cc1)NC(=O)CCc1ccc(F)cc1)C(=O)NCCN1CCCC1` [Example 11, 4-F-Phenylpropionyl-DBiphe-Ser-NMeTyr-DLys(Nic)-Leu-NH--(CH2)2-(1-pyrrolidine)] ({Propanoyl(3-(4-F-phenyl))}-[dBip]S[NMeY][dK](Nicotinoyl)L-{NH(2-pyrrolidin-1-ylethyl)}), the “LHRH Antagonist Activity (pA2)” value came to 7.62.
